The text below walks through data of the NIST ThermoML archive (doi:10.1016/j.tca.2017.12.026).

The conditions of series [1]: Crystal; DTA.
Series [2] is described as follows: Molar enthalpy of transition or fusion. The conditions noted are these: Crystal; DSC.

Each structure is given as a SMILES string. Where “and” joins values, the source holds several entries; their conditions need not be identical. Equal values may be shown once. Numbers after ± are expanded uncertainties.

`OC[C@@H](O)[C@@H](O)[C@H](O)[C@H](O)CO` [D-mannitol]: the Normal melting temperature in series [1] is 165.73 ± 2 °C and 166.68 ± 2 °C and 165.74 ± 2 °C. For the same molecule, the “Molar enthalpy of transition or fusion” value in series [2] is 12.9 kcal/mol and 12.4 kcal/mol and 12.5 kcal/mol.
